Data: US9642362B2, “Antimicrobial compositions and uses thereof” (CASCADES CANADA ULC, priority 2012, dated 2017)
Where no end group is shown, it is not given here.

Columns and labels:
E. coli ATCC 11229 [1] = experiment: Agar diffusion test of pre-soaked paper towel; type: cell-based, Escherichia coli; conditions: FIG. 5
Text: The antimicrobial activity of the compositions as described herein on a cellulosic substrate could be determined by soaking the cellulosic substrate in the compositions to be tested and plating the cellulosic substrate on agar. An agar diffusion test could then be performed.
The agar well diffusion method previously described by Tagg et al. 1976 was applied as a rapid method to detect the inhibitory activity of the compounds directly (as a solution) or after immobilization on paper towel. Briefly, 25 mL of sterile TSB with 0.8% (w/v) agar was seeded with 150 μL of an overnight culture of one of the target sensitive strains and poured into a sterile Petri dish (Starstedt Inc., Montreal, Canada). The Petri dishes were kept for 20 min at room temperature under sterile conditions to allow agar solidification. Wells 7 mm in diameter were then cut in the solidified agar using the wide end of a sterile 5-mL pipette. Each well was filled with 80 μL of the compound or mixture to be tested. In the case of pre-soaked paper towel, circles 1 cm in diameter were cut and deposited directly on the solidified agar. All plates were incubated at 30° C. for 18 h and the diameter of the zone of inhibition was measured.
The aim of this experiment was to study the inhibition of bacterial growth by the antimicrobial Mix I and II in association with paper towels.

Listeria ivanovii HPB28 = experiment: Growth curves by microplate microdilution method; type: cell-based; conditions: for Reduction of growth, taken separately compared with combined (Mix II): FIG. 1B; for Reduction of growth, taken separately compared with combined (Mix I): FIG. 2B, lactic acid (0.125%), citric acid (0.0625%) and pediocin; for Inhibition (growth curves): FIGS. 1B, 2, compounds alone at citric acid 0.25%, lactic acid 0.25%, reuterin 1.25%, or combined as Mix
Description: (§1) The inhibitory activity of the various antimicrobial compounds alone or in combination was assayed using the microtiter plate critical dilution method with two-fold serial dilutions in TSB (Turcotte et al., 2004). The 100-μL carry-over volume was drawn into the multi-channel pipette four times between each dilution. Wells were then seeded with 40 μL of target strain overnight culture diluted 1,000 fold. The plates (MIC-2000 U-Bottom Microtiter® Plates; Thermo Labsystems, Franklin, Mass., USA) were incubated at 30° C. for 18 h before reading the optical density at 650 nm using a Thermomax microplate reader (Molecular Devices, Opti-Resources, Charny, QC, Canada).
(§2) One arbitrary unit (AU) was defined as a 100-μL portion of the highest dilution of tested sample that inhibited growth in a well after 18 h of incubation (Daba et al, 1993). […] The number of AU per ml is thus […], where n=number of inhibited wells.

E. coli ATCC 11229 [2] = experiment: Growth curves by microplate microdilution method; type: cell-based, Escherichia coli; conditions: for Reduction of growth, taken separately compared with combined (Mix II): FIG. 1A; for Inhibition (growth curves): FIGS. 1A, 2, compounds alone at citric acid 0.25%, lactic acid 0.25%, reuterin 1.25%, or combined as Mix
Description: as §1, §2

Row | Molecule | Inhibition of bacterial growth, individually compared with Mix I and Mix II (E. coli ATCC 11229 [1]) | Reduction of growth, taken separately compared with combined (Mix II) (Listeria ivanovii HPB28) | Reduction of growth, taken separately compared with combined (Mix I) (Listeria ivanovii HPB28) | Inhibition (growth curves) (Listeria ivanovii HPB28) | Reduction of growth, taken separately compared with combined (Mix II) (E. coli ATCC 11229 [2]) | Inhibition (growth curves) (E. coli ATCC 11229 [2])
1 | CC(=O)O [acetic acid] | do not inhibit E. Coli ATCC 11229 bacterial growth as efficiently as Mix I |  |  |  |  | 
2 | O=C(O)CC(O)(CC(=O)O)C(=O)O [citric acid] |  | do not reduce the growth of E. Coli ATCC 11229 or Listeria ivanovii HPB28 as efficiently | do not reduce the growth of Listeria ivanovii HPB28 as efficiently | partial and non-significant inhibition | do not reduce the growth of E. Coli ATCC 11229 or Listeria ivanovii HPB28 as efficiently | partial and non-significant inhibition
3 | CC(O)C(=O)O (centres unmarked) [lactic acid] | do not inhibit E. Coli ATCC 11229 bacterial growth as efficiently as Mix I | do not reduce the growth of E. Coli ATCC 11229 or Listeria ivanovii HPB28 as efficiently | do not reduce the growth of Listeria ivanovii HPB28 as efficiently | partial and non-significant inhibition | do not reduce the growth of E. Coli ATCC 11229 or Listeria ivanovii HPB28 as efficiently | partial and non-significant inhibition
4 | pediocin: Fresh pediocin extract; class IIa bacteriocin produced by lactic acid bacteria (KYYGNGVTCGKHSCSVDWGKATTCIINNGAMAWATGGHQGNHKC; ends and bridges not checked; cysteine pairing not given here; UniProt P29430 19-62, looked up) | do not inhibit E. Coli ATCC 11229 bacterial growth as efficiently as Mix I |  | do not reduce the growth of Listeria ivanovii HPB28 as efficiently |  |  | 
